molecular target: T1, human 5-HT6 receptor (Homo sapiens, UniProt P50406); assay: Human 5-HT6 Receptor Binding Assay ([3H]LSD displacement, scintillation beads); conditions: membranes of CHO-K1 cells with recombinant human 5-HT6, 4 nM [3H]LSD; Table 1, class symbols; read-out: h5-HT6 (Ki)
T1 construct: host or cells: CHO-K1 cells, stably transfected; membranes prepared in house
T1 sequence (P50406 whole entry): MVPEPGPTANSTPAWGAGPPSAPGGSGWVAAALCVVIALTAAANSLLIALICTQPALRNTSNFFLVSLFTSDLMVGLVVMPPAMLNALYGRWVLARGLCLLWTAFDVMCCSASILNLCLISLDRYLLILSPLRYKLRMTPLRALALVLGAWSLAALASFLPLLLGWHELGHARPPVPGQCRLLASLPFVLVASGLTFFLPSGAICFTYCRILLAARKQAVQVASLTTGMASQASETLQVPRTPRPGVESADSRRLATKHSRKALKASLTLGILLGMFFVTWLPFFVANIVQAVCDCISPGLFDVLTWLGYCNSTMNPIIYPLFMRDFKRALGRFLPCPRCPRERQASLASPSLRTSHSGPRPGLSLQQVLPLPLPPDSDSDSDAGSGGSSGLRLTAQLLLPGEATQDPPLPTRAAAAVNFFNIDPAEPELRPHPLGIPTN

| Structure (SMILES) | Ki [nM] |
| --- | --- |
| O=S(=O)(c1cccc(OC(F)(F)F)c1)c1ccc2c3c([nH]c2c1)C1(CCCOC1)NCC3 (single isomer, unassigned) [Example 319] | < 500 |
| O=S(=O)(Oc1ccc2c(c1)OC1CN(C3CCCCC3)CCC21)c1ccc(Cl)cc1 (centres unmarked) [Example 802] | 500 to 1000 |
| O=S(=O)(c1ccc2c(c1)OC1CNCCC21)c1cc(F)ccc1F (centres unmarked) [Example 143] | < 500 |
| O=S(=O)(c1cccc(OC(F)(F)F)c1)c1ccc2c(c1)OC1CNCCC21 (centres unmarked) [Example 166, 7-{[3-(trifluoromethoxy)phenyl]sulfo-nyl}-1,2,3,4,4a,9a-hexahydro[1]benzofuro[2,3-c]pyridine] | < 500 |
| [O-][S+](c1ccc(OC(F)(F)F)cc1)c1ccc2c3c(oc2c1)CNCC3 (centres unmarked) [Example 226, 7-{[4-(trifluoromethoxy)phenyl]sulfi-nyl}-1,2,3,4-tetrahydro[1]benzofuro[2,3-c]pyridine] | > 1000 |
| O=S(=O)(c1cccc(Cl)c1)c1ccc2oc3c(c2c1)CCNC3 [Example 243] | < 500 |
| CC(C)c1ccc(S(=O)(=O)c2ccc3c(c2)OC2CNCCC32)cc1 (centres unmarked) [Example 125] | < 500 |
| O=S(=O)(Oc1ccc2c(c1)C1CCNCC1O2)c1csc2ccccc12 (centres unmarked) [Example 726] | < 500 |
| CC(C)Oc1cccc(S(=O)(=O)c2ccc3c4c(oc3c2)C(C)(C(F)F)NCC4)c1 (single isomer, unassigned) [Example 34, 1-(difluoromethyl)-1-methyl-7-{[3-(propan-2-yloxy)phenyl]sulfonyl}-1,2,3,4-tetrahydro[1]benzofuro[2,3-c]pyridine] | < 500 |
| Cc1cc(C)cc(S(=O)(=O)Oc2ccc3c(c2)C2CCNCC2O3)c1 (centres unmarked) [Example 705] | < 500 |
| CC12CCNCC1Oc1cc(S(=O)(=O)c3cncc(C(F)(F)F)c3)ccc12 (centres unmarked) [Example 431] | > 1000 |
| CC12CCNCC1Oc1ccc(OS(=O)(=O)Cc3ccccc3F)cc12 (centres unmarked) [Example 786] | < 500 |
| O=S(=O)(c1ccc2c3c(oc2c1)CNCC3)c1ccccn1 [Example 345] | < 500 |
| CC(C)Oc1cccc(S(=O)(=O)c2ccc3c(c2)OC2CNCCC32)c1 (centres unmarked) [Example 159] | < 500 |
| COc1cc(OC)cc(S(=O)(=O)c2ccc3c(c2)OC2CNCCC32C)c1 (centres unmarked) [Example 490] | < 500 |
| COc1cc(OC(C)C)cc(S(=O)(=O)c2ccc3c(c2)OC2CN(C4CCC4)CCC32)c1 (centres unmarked) [Example 612] | < 500 |
| COc1cccc(S(=O)(=O)c2ccc3c4c(oc3c2)CNCC4)c1 [Example 199] | < 500 |
| O=S(=O)(Oc1ccc2c(c1)OC1CNCCC21)c1cc2ccccc2s1 (centres unmarked) [Example 664] | < 500 |
| O=S(=O)(c1ccc2c(c1)C1CCNCC1O2)c1ccccc1Cl (centres unmarked) [Example 169] | 500 to 1000 |
| CC(C)Oc1cc(F)cc(S(=O)(=O)c2ccc3c(c2)OC2CNCCC32)c1 (centres unmarked) [Example 417] | < 500 |
| O=S(=O)(c1ccc2ccccc2c1)c1cccc2c1OC1CNCCC21 (centres unmarked) [Example 189] | < 500 |
| O=S(=O)(c1ccccc1)c1ccc2c(c1)OC1CN(Cc3ccccc3)CCC21 (centres unmarked) [Example 611] | < 500 |
| O=S(=O)(Cc1ccccc1)Oc1ccc2c(c1)OC1CNCCC21 (centres unmarked) [Example 637] | > 1000 |
| O=S(=O)(Oc1ccc2c(c1)OC1CNCCC21)c1c(Cl)nc2sccn12 (centres unmarked) [Example 792] | < 500 |
| O=S(=O)(c1ccc(F)c(F)c1)c1ccc2c(c1)OC1CNCCC21 (centres unmarked) [Example 128] | < 500 |
| O=S(=O)(c1cccc(C(F)(F)F)c1)c1ccc2c(c1)OC1CNCCC21 (centres unmarked) [Example 161, 7-{[3-(trifluoromethyl)phenyl]sulfonyl}-1,2,3,4,4a,9a-hexahydro[1]benzofuro[2,3-c]pyridine] | < 500 |
| [O-][S+](c1ccc2c(c1)OC1CNCCC21)c1cc(Cl)ccc1Cl (centres unmarked) [Example 135] | > 1000 |
| O=S(=O)(Oc1ccc2c(c1)C1CCNCC1O2)c1ccccc1 (centres unmarked) [Example 696] | > 1000 |

same assay, conditions: membranes of CHO-K1 cells with recombinant human 5-HT6, 4 nM [3H]LSD; specific data; read-out: h5-HT6 (Ki)

| Structure (SMILES) | Ki [nM] |
| --- | --- |
| O=S(=O)(c1cccc(C(F)(F)F)c1)c1ccc2c(c1)OC1CNCCC21 (centres unmarked) [Example 161, 7-{[3-(trifluoromethyl)phenyl]sulfonyl}-1,2,3,4,4a,9a-hexahydro[1]benzofuro[2,3-c]pyridine] | 44 |

Source: patent US8765779B2, “Tricyclic derivatives and their pharmaceutical use and compositions” (Cephalon, Inc., priority 2009, dated 2014)
